# Measurements: patent publication US20140255392A1 (BAYER INTELLECTUAL PROPERTY GMBH, priority 2011, published 2014)
# Target: T1, human kinase Mps-1 (Homo sapiens, UniProt P33981)
# T1 construct: N-terminally GST-tagged human full length recombinant Mps-1 kinase; GST (N); purchased Invitrogen, Karslruhe, Germany PV4071
# T1 sequence (P33981 1-857): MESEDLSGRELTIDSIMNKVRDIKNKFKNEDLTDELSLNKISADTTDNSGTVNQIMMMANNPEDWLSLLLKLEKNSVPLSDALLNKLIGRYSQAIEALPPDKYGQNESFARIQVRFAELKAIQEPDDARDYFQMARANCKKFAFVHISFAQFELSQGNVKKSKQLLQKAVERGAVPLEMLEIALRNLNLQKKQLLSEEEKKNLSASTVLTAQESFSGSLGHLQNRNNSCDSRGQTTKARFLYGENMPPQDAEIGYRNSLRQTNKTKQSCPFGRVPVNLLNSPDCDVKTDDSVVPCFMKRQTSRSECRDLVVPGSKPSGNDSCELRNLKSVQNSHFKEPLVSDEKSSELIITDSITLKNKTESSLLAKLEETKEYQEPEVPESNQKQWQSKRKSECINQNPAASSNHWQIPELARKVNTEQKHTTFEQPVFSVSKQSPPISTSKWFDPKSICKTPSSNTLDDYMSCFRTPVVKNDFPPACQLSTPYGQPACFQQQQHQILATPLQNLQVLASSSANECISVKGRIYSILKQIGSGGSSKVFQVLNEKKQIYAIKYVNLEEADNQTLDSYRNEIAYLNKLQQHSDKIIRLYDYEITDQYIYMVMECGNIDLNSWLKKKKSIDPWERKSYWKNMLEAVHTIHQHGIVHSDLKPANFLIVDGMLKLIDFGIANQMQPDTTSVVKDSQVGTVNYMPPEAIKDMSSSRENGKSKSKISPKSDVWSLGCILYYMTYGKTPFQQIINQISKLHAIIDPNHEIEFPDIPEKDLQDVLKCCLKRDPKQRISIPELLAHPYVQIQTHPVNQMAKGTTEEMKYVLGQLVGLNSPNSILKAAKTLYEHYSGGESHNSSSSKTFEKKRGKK
# Assay: Mps-1 kinase assay (TR-FRET)
# Assay type: biochemical
# Details: N-terminally GST-tagged human full length recombinant Mps-1; 10 μM ATP; 1 μM peptide substrate; 60 min at 22° C.
# How it was run: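 TR-FRET signal between a Europium anti-phospho-Ser/Thr antibody and streptavidin-XLent reported phosphorylation of a biotinylated peptide by GST-tagged full-length Mps-1. Enzyme was near 1 nM final, chosen per lot for linearity.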
row,IC50,Structure (SMILES)
1,1.2 nM,"CCNC(=O)c1ccc(-c2cnc3c(NCCC(F)(F)F)cc(Oc4cccc(F)c4F)cn23)cc1C [Example 73, 4-{6-(2,3-Difluorophenoxy)-8-[(3,3,3-trifluoropropyl)amino]imidazo[1,2-a]pyridin-3-yl}-N-ethyl-2-methylbenzamide]"
2,6.8 nM,"Cc1cc(-c2cnc3c(NCCC(F)(F)F)cc(Oc4cccc(OC(F)(F)F)c4)cn23)ccc1C(=O)NC1CC1 [Example 74, N-cyclopropyl-2-methyl-4-{6-[3-(trifluoromethoxy)phenoxy]-8-[(3,3,3-trifluoropropyl)amino]imidazo[1,2-a]pyridin-3-yl}benzamide]"
3,157 nM,"Cc1cc(-c2cnc3c(NCCC(F)(F)F)cc(Oc4cccc(OC(F)(F)F)c4)cn23)ccc1C(=O)NC1(C#N)CC1 [Example 75, N-(1-cyanocyclopropyl)-2-methyl-4-{6-[3-(trifluoromethoxy)phenoxy]-8-[(3,3,3-trifluoropropyl)amino]imidazo[1,2-a]pyridin-3-yl}benzamide]"
4,105 nM,"Cc1cc(-c2cnc3c(NCCC(F)(F)F)cc(Oc4cccc(OC(F)(F)F)c4)cn23)ccc1C(=O)NC1(C)CC1 [Example 76, 2-Methyl-N-(1-methylcyclopropyl)-4-{6-[3-(trifluoromethoxy)phenoxy]-8-[(3,3,3-trifluoropropyl)amino]imidazo[1,2-a]pyridin-3-yl}benzamide]"
5,51 nM,"CCNC(=O)c1ccc(-c2cnc3c(NCCC(F)(F)F)cc(Oc4cccc(OC(F)(F)F)c4)cn23)cc1C [Example 77, N-ethyl-2-methyl-4-{6-[3-(trifluoromethoxy)phenoxy]-8-[(3,3,3-trifluoropropyl)amino]imidazo[1,2-a]pyridin-3-yl}benzamide]"
6,30.3 nM,"CNC(=O)c1ccc(-c2cnc3c(NCCC(F)(F)F)cc(Oc4cccc(OC(F)(F)F)c4)cn23)cc1C [Example 78, N,2-dimethyl-4-{6-[3-(trifluoromethoxy)phenoxy]-8-[(3,3,3-trifluoropropyl)amino]imidazo[1,2-a]pyridin-3-yl}benzamide]"
7,35.6 nM,COc1ccccc1-c1cc(NCCC(F)(F)F)c2ncc(-c3ccc(C(=O)NC4(C)CC4)c(C)c3)n2c1 [Example 80]
8,19.8 nM,"CNC(=O)c1ccc(-c2cnc3c(NCCC(F)(F)F)cc(-c4ccccc4OC)cn23)cc1C [Example 81, 4-{6-(2-Methoxyphenyl)-8-[(3,3,3-trifluoropropyl)amino]imidazo[1,2-a]pyridin-3-yl}-N,2-dimethylbenzamide]"
9,21.3 nM,"CCNC(=O)c1ccc(-c2cnc3c(NCCC(F)(F)F)cc(-c4ccccc4OC)cn23)cc1C [Example 82, N-ethyl-4-{6-(2-methoxyphenyl)-8-[(3,3,3-trifluoropropyl)amino]imidazo[1,2-a]pyridin-3-yl}-2-methylbenzamide]"
10,68.7 nM,"Cc1cc(-c2cnc3c(NCCC(F)(F)F)cc(Oc4ccc(OC(F)(F)F)c(F)c4)cn23)ccc1C(=O)NC1CC1 [Example 83, N-cyclopropyl-4-{6-[3-fluoro-4-(trifluoromethoxy)phenoxy]-8-[(3,3,3-trifluoropropyl)amino]imidazo[1,2-a]pyridin-3-yl}-2-methylbenzamide]"
11,243 nM,"Cc1cc(-c2cnc3c(NCCC(F)(F)F)cc(Oc4ccc(OC(F)(F)F)c(F)c4)cn23)ccc1C(=O)NC1(C#N)CC1 [Example 84, N-(1-cyanocyclopropyl)-4-{6-[3-fluoro-4-(trifluoromethoxy)phencow]-8-[(3,3,3-trifluoropropyl)amino]imidazo[1,2-a]pyridin-3-yl}-2-methylbenzamide]"
12,199 nM,"Cc1cc(-c2cnc3c(NCCC(F)(F)F)cc(Oc4ccc(OC(F)(F)F)c(F)c4)cn23)ccc1C(=O)NC1(C)CC1 [Example 85, 4-{6-[3-F luoro-4-(trifluoromethoxy)phenoxy]-8-[(3,3,3-trifluoropropyl)amino]imidazo[1,2-a]pyridin-3-yl}-2-methyl-N-(1-methylcyclopropyl)benzamide]"
13,56.7 nM,"CNC(=O)c1ccc(-c2cnc3c(NCCC(F)(F)F)cc(Oc4ccc(OC(F)(F)F)c(F)c4)cn23)cc1C [Example 86, 4-{6-[3-Fluoro-4-(trifluoromethoxy)phenoxy]-8-[(3,3,3-trifluoropropyl)amino]imidazo[1,2-a]pyridin-3-yl}-N,2-dimethylbenzamide]"
14,70.3 nM,"CCNC(=O)c1ccc(-c2cnc3c(NCCC(F)(F)F)cc(Oc4ccc(OC(F)(F)F)c(F)c4)cn23)cc1C [Example 87, N-ethyl-4-{6-[3-fluoro-4-(trifluoromethoxy)phenoxy]-8-[(3,3,3-trifluoropropyl)amino]imidazo[1,2-a]pyridin-3-yl}-2-methylbenzamide]"
15,9.8 nM,"CNC(=O)c1ccc(-c2cnc3c(NCCC(F)(F)F)cc(-c4ccncc4)cn23)cc1C [Example 88, N,2-dimethyl-4-{6-(pyridin-4-yl)-8-[(3,3,3-trifluoropropyl)amino]imidazo[1,2-a]pyridin-3-yl}benzamide]"
16,6.9 nM,"CCNC(=O)c1ccc(-c2cnc3c(NCCC(F)(F)F)cc(-c4ccncc4)cn23)cc1C [Example 89, N-ethyl-2-methyl-4-{6-(pyridin-4-yl)-8-[(3,3,3-trifluoropropyl)amino]imidazo[1,2-a]pyridin-3-yl}benzamide]"
17,15.9 nM,Cc1cc(-c2cnc3c(NCCC(F)(F)F)cc(-c4ccncc4)cn23)ccc1C(=O)NC1(C)CC1 [Example 90]
18,20.6 nM,"Cc1cc(-c2cnc3c(NCCC(F)(F)F)cc(-c4ccncc4)cn23)ccc1C(=O)NC1(C#N)CC1 [Example 91, N-(1-cyanocyclopropyl)-2-methyl-4-{6-(pyridin-4-yl)-8-[(3,3,3-trifluoropropyl)amino]imidazo[1,2-a]pyridin-3-yl}benzamide]"
19,13.2 nM,"C=Cc1cc(NCCC(F)(F)F)c2ncc(-c3ccc(C(=O)NC4CC4)c(C)c3)n2c1 [Example 92, N-cyclopropyl-2-methyl-4-{8-[(3,3,3-trifluoropropyl)amino]-6-vinylimidazo[1,2-a]pyridin-3-yl}benzamide]"
20,68.6 nM,"C=Cc1cc(NCCC(F)(F)F)c2ncc(-c3ccc(C(=O)NC)c(C)c3)n2c1 [Example 93, N,2-dimethyl-4-{8-[(3,3,3-trifluoropropyl)amino]-6-vinylimidazo[1,2-a]pyridin-3-yl}benzamide]"
21,84.3 nM,"C=Cc1cc(NCCC(F)(F)F)c2ncc(-c3ccc(C(=O)NCC)c(C)c3)n2c1 [Example 94, N-ethyl-2-methyl-4-{8-[(3,3,3-trifluoropropyl)amino]-6-vinylimidazo[1,2-a]pyridin-3-yl}benzamide]"
22,140 nM,"C=Cc1cc(NCCC(F)(F)F)c2ncc(-c3ccc(C(=O)NC4(C)CC4)c(C)c3)n2c1 [Example 95, 2-Methyl-N-(1-methylcyclopropyl)-4-{8-[(3,3,3-trifluoropropyl)amino]-6-vinylimidazo[1,2-a]pyridin-3-yl}benzamide]"
23,123 nM,"C=Cc1cc(NCCC(F)(F)F)c2ncc(-c3ccc(C(=O)NC4(C#N)CC4)c(C)c3)n2c1 [Example 96, N-(1-cyanocyclopropyl)-2-methyl-4-{8-[(3,3,3-trifluoropropyl)amino]-6-vinylimidazo[1,2-a]pyridin-3-yl}benzamide]"
24,13.3 nM,CCc1cc(NCCC(F)(F)F)c2ncc(-c3ccc(C(=O)NC4CC4)c(C)c3)n2c1 [Example 99]
25,106 nM,"CCc1cc(NCCC(F)(F)F)c2ncc(-c3ccc(C(=O)NC)c(C)c3)n2c1 [Example 100, 4-{6-Ethyl-8-[(3,3,3-trifluoropropyl)amino]imidazo[1,2-a]pyridin-3-yl}-N,2-dimethylbenzamide]"
26,123 nM,"CCNC(=O)c1ccc(-c2cnc3c(NCCC(F)(F)F)cc(CC)cn23)cc1C [Example 101, N-ethyl-4-{6-ethyl-8-[(3,3,3-trifluoropropyl)amino]imidazo[1,2-a]pyridin-3-yl}-2-methylbenzamide]"
27,131 nM,"CCc1cc(NCCC(F)(F)F)c2ncc(-c3ccc(C(=O)NC4(C)CC4)c(C)c3)n2c1 [Example 102, 4-{6-Ethyl-8-[(3,3,3-trifluoropropyl)amino]imidazo[1,2-a]pyridin-3-yl}-2-methyl-N-(1-methylcyclopropyl)benzamide]"
28,156 nM,CCc1cc(NCCC(F)(F)F)c2ncc(-c3ccc(C(=O)NC4(C#N)CC4)c(C)c3)n2c1 [Example 103]
29,1.6 nM,"CNC(=O)c1ccc(-c2cnc3c(NCCC(F)(F)F)cc(Oc4ccc(OC)c(F)c4)cn23)cc1C [Example 106, 4-{6-(3-Fluoro-4-methoxyphenoxy)-8-[(3,3,3-trifluoropropyl)amino]imidazo[1,2-a]pyridin-3-yl}-N,2-dimethylbenzamide]"
